Measurements from ChEMBL document CHEMBL6127072, “PROTAC unleashed: Unveiling the synthetic approaches and potential therapeutic applications” (Eur J Med Chem, 2024).

Tests used:
[1] = target: T1, Protein cereblon/Bromodomain-containing protein 4 (Homo sapiens, UniProt O60885+Q96SW2); experiment: PROTAC activity at CRBN/BRD4 in human MV4-11 cells assessed as induction of degradation of BRD4; type: cell-based
[2] = target: T2, 3-hydroxy-3-methylglutaryl-coenzyme A reductase (Homo sapiens) (UniProt P04035); experiment: Inhibition of HMG-CoA reductase (unknown origin) at 10 uM relative to control
T2 sequence (whole entry): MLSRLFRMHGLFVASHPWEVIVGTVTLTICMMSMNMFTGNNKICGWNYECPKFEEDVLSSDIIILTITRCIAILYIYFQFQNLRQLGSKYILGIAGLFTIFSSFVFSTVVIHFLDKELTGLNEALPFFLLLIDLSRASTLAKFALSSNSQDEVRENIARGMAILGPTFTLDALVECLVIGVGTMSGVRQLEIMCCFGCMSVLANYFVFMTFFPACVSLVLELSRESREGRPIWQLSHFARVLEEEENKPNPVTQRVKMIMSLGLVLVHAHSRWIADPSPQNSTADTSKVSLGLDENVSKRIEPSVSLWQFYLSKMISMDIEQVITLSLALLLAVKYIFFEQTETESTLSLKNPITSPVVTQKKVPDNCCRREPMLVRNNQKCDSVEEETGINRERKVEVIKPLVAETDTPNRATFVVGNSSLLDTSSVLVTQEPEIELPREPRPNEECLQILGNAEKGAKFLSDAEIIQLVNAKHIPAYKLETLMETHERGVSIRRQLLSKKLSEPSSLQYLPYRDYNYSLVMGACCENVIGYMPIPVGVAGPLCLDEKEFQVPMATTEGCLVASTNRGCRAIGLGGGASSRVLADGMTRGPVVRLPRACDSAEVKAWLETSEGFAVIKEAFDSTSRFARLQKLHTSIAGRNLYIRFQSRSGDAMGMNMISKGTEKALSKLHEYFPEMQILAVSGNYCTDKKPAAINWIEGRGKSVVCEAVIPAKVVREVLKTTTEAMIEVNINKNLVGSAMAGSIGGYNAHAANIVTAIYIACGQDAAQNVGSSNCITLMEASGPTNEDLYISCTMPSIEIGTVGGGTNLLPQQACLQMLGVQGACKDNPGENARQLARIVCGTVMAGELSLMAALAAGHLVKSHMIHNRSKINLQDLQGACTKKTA

[3] = target: T3, 3-hydroxy-3-methylglutaryl-coenzyme A reductase (Homo sapiens, UniProt P04035); experiment: Inhibition of HMG-CoA Reductase (unknown origin)
T3 sequence (P04035 whole entry): T2 sequence (whole entry)

[4] = target: Protein cereblon/Microtubule-associated protein tau (Homo sapiens, UniProt P10636+Q96SW2); experiment: PROTAC activity at CRBN/tau in HEK293T cells measured for 48 hrs by immunoblot analysis; type: cell-based
Sequence of Protein cereblon/Microtubule-associated protein tau (P10636 whole entry): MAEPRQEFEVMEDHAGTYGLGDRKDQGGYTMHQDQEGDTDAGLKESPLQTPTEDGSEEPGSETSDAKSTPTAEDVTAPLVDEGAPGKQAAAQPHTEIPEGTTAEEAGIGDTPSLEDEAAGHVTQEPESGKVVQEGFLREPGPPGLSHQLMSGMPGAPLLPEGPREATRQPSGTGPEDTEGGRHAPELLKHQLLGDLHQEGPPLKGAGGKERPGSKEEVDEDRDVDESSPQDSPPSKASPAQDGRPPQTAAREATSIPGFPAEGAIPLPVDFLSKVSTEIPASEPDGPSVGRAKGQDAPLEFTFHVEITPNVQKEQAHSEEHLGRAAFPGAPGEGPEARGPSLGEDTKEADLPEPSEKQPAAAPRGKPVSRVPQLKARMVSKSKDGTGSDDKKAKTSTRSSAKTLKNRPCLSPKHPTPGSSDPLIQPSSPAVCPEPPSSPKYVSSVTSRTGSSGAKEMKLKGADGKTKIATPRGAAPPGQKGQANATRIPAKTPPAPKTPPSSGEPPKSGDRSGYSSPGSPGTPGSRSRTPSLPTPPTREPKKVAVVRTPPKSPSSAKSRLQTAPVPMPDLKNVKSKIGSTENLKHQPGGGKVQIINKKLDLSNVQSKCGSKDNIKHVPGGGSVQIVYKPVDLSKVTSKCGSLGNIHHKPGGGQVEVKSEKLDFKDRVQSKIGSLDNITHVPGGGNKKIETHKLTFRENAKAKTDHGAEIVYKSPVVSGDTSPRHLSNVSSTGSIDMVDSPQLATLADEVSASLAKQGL
Sequence of Protein cereblon/Microtubule-associated protein tau (Q96SW2 whole entry): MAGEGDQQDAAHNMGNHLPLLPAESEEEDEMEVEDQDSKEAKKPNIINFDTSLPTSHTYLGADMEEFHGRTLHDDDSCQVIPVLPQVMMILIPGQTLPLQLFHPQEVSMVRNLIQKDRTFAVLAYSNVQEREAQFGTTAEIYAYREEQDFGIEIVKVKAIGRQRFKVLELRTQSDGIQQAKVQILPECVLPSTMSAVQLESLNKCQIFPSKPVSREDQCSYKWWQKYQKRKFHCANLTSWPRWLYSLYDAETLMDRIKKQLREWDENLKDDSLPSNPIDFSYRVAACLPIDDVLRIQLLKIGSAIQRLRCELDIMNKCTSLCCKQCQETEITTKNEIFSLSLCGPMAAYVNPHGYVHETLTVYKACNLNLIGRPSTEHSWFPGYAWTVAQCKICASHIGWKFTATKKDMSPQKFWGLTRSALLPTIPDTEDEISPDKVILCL

NS3 protease = NS3 protease (Hepacivirus C, UniProt C1KIQ2); experiment: Inhibition of Hepatitis C virus NS3 protease; design: species or system Hepacivirus hominis
Sequence of NS3 protease (C1KIQ2 whole entry): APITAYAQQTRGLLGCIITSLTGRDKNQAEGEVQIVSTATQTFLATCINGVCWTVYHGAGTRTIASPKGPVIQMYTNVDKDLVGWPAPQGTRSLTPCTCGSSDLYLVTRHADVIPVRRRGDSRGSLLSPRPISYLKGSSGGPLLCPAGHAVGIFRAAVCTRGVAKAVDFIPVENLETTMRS

[5] = target: Protein cereblon/Leucine-rich repeat serine/threonine-protein kinase 2 (Homo sapiens, UniProt Q5S007+Q96SW2); experiment: PROTAC activity at CRBN/LRRK2 in human MOLT-4 cells assessed as induction of protein .degradation incubated for 48 hrs by Western blot analysis; type: cell-based
Sequence of Protein cereblon/Leucine-rich repeat serine/threonine-protein kinase 2 (Q5S007 whole entry): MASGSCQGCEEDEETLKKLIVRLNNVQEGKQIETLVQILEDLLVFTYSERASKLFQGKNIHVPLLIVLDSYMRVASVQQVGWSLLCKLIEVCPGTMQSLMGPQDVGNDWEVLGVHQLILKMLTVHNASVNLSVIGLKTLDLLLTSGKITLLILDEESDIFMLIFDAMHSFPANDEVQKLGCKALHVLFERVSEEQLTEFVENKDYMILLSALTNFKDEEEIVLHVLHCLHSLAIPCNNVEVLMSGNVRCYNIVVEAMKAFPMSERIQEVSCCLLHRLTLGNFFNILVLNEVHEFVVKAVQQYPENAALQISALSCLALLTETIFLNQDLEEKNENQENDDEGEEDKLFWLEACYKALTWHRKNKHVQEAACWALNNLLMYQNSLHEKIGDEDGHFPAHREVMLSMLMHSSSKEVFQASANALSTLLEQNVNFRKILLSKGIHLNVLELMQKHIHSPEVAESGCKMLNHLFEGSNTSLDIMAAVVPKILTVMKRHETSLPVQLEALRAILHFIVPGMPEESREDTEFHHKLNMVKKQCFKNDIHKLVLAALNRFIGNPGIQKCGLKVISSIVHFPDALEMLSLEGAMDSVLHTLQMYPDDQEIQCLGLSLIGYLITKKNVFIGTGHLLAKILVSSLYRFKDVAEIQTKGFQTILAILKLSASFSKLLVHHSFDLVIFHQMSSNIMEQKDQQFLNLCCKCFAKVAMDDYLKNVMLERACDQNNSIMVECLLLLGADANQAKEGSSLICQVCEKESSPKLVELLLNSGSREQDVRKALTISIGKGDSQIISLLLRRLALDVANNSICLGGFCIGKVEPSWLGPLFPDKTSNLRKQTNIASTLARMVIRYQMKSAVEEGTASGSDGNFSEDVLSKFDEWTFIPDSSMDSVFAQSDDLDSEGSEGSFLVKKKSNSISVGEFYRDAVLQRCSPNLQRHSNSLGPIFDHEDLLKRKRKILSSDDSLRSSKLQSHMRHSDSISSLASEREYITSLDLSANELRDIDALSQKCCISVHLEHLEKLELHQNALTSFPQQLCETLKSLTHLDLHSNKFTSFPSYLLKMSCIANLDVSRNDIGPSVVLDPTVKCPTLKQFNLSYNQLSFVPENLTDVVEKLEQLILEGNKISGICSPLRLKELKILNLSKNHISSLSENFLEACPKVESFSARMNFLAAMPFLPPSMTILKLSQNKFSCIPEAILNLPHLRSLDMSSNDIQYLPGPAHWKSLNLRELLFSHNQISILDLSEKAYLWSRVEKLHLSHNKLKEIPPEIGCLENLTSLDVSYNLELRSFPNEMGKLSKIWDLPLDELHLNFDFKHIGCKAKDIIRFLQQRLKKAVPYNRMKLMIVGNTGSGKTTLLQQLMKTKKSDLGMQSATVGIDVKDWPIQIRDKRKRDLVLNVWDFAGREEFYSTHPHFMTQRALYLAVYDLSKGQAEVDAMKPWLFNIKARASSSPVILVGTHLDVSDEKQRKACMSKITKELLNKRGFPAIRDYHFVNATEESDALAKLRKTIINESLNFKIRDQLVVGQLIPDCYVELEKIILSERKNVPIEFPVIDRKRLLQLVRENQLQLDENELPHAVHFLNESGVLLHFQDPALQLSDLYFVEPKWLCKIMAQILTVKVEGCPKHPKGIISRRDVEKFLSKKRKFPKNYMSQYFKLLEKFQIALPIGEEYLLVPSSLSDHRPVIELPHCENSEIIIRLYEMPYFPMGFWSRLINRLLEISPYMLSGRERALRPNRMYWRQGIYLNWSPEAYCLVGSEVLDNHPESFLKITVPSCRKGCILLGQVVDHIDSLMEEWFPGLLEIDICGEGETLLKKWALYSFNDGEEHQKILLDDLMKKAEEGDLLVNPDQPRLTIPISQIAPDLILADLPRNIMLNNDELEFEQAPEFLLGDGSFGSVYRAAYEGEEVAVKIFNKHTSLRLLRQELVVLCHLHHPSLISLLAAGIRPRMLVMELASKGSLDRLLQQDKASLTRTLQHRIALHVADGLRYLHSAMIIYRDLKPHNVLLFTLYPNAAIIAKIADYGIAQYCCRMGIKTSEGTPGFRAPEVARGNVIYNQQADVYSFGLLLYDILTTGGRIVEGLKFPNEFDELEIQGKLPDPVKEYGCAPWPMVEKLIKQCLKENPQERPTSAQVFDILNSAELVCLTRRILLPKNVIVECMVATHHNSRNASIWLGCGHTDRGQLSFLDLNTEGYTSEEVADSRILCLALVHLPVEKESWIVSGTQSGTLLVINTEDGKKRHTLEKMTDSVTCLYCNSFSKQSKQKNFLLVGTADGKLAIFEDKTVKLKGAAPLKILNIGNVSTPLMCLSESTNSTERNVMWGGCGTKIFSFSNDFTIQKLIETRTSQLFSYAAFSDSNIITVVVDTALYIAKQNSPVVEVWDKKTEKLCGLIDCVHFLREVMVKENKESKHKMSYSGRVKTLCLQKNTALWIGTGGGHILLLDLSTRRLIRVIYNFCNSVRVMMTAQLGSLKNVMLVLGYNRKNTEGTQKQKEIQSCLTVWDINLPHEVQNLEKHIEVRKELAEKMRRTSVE
Sequence of Protein cereblon/Leucine-rich repeat serine/threonine-protein kinase 2 (Q96SW2 whole entry): as the sequence (Q96SW2 whole entry) above

[6] = target: Protein cereblon/Androgen receptor (Homo sapiens, UniProt P10275+Q96SW2); experiment: PROTAC activity at AR/CRBN in human A549 cells assessed as induction of androgen receptor degradation measured after 1 hr by Western blot analysis; type: cell-based
Sequence of Protein cereblon/Androgen receptor (P10275 whole entry): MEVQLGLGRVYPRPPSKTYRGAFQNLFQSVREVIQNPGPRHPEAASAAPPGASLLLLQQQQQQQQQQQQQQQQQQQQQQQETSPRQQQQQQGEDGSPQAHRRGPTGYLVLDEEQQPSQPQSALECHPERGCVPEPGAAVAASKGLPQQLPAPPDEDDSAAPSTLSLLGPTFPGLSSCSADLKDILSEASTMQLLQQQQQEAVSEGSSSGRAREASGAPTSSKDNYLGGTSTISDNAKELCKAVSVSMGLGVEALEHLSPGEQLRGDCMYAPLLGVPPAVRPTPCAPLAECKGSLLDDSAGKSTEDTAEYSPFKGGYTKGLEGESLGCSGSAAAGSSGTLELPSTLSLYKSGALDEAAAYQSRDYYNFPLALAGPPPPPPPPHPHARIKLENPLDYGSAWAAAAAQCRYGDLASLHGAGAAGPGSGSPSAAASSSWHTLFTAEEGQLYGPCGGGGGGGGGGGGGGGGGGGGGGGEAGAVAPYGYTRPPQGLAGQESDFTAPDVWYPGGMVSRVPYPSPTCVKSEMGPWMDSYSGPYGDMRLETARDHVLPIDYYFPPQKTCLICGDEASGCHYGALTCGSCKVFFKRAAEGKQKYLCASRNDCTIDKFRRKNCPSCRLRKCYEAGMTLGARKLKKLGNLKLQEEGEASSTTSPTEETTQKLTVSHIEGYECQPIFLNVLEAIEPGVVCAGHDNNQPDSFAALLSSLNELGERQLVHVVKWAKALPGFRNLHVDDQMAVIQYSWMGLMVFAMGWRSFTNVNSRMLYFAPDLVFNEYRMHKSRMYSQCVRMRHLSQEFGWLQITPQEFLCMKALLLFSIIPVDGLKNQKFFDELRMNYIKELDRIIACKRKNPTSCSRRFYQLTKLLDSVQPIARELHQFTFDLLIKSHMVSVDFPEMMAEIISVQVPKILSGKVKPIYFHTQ
Sequence of Protein cereblon/Androgen receptor (Q96SW2 whole entry): as the sequence (Q96SW2 whole entry) above

[7] = target: Replicase polyprotein 1ab (Severe acute respiratory syndrome coronavirus 2, UniProt P0DTD1); experiment: Inhibition of SARS CoV-2 MPro
[8] = target: T1, Protein cereblon/Bromodomain-containing protein 4; experiment: PROTAC activity at CRBN/BRD4 in human MV4-11 cells assessed as induction of degradation of BRD4 measured after 24 hrs by Western blot analysis; type: cell-based
[9] = target: T1, Protein cereblon/Bromodomain-containing protein 4; experiment: PROTAC activity at CRBN/BRD4 in human MV4-11 cells assessed as maximal degradation at 1 uM incubated for 30 mins by Western blot analysis relative to control; type: cell-based

T1 sequence (Q96SW2 whole entry, looked up, other chains not shown): as the sequence (Q96SW2 whole entry) above

Q: `Cc1cc(-c2cc(NC(=O)CCC(=O)NCCOCCOCCNc3ccc4c(c3)C(=O)N(C3CCC(=O)NC3=O)C4=O)ccc2Oc2ccccc2)n2cc[nH]c(=O)c12` (stereo unspecified) was tested. Which DC50 [1] did it give?
A: 0.75 nM

Q: With `Cc1ncsc1-c1ccc(CNC(=O)[C@@H]2C[C@@H](O)CN2C(=O)[C@@H](NC(=O)CCCCCCCCCCNC(=O)O[C@@H]2C[C@H](C)C=C3C=C[C@@H](C)[C@@H](CC[C@@H]4C[C@@H](O)CC(=O)O4)[C@@H]32)C(C)(C)C)cc1` as the molecule, how does the inhibition [2] read?
A: 56%

Q: `Cc1ncsc1-c1ccc(CNC(=O)[C@@H]2C[C@@H](O)CN2C(=O)[C@@H](NC(=O)CCCCCCCCCCNC(=O)O[C@@H]2C[C@H](C)C=C3C=C[C@@H](C)[C@@H](CC[C@@H](O)C[C@@H](C)CC(=O)O)[C@@H]32)C(C)(C)C)cc1` was tested. Which IC50 [3] did it give?
A: 120 nM

Q: For `O=C(CCc1ccc2[nH]c3ccncc3c2c1)NCCOCCCOCCNc1cccc2c1C(=O)N(C1CCC(=O)NC1=O)C2=O` (stereo unspecified), which DC50 [4] is on record?
A: 75 nM

Q: For `CCC[C@H](NC(=O)[C@H]1N(C(=O)[C@@H](NC(=O)[C@@H](NC(=O)c2cnc(CC(=O)NCCOCCOCCOc3cc4c5c(cccc5c3)C(=O)N(C3CCC(=O)NC3=O)C4=O)cn2)C2CCCCC2)C(C)(C)C)C[C@]2(C)CCC[C@]12C)C(=O)C(=O)NC1CC1` (stereo partly specified), which EC50 (NS3 protease) is on record?
A: 50 nM

Q: `CC(C)C[C@H](CCOCCOCCOCCNc1ccc(-c2cc(-c3cccc(Br)c3)[nH]n2)cc1)NC(=O)[C@H](O)[C@@H](N)Cc1ccccc1` was tested. Which DC50 [5] did it give?
A: 5040 nM

Q: `CC1(C)C(=O)N(c2ccc(C#N)c(C(F)(F)F)c2)C(=O)N1c1ccc(-c2ccc(O[C@@H]3CCN(C(=O)C4CCN(c5ccc6c(c5)C(=O)N(C5CCC(=O)NC5=O)C6=O)CC4)C3)cc2)cc1` (stereo partly specified) was tested. Which DC50 [6] did it give?
A: 75 nM

Q: `Cc1ncsc1-c1ccc(CNC(=O)[C@@H]2C[C@@H](O)CN2C(=O)[C@@H](NC(=O)CCOCCOCCOCCNC(=O)[C@]23CCC(C)(C)C[C@H]2[C@H]2CC[C@@H]4[C@@]5(C)CC[C@H](O)C(C)(C)[C@@H]5CC[C@@]4(C)[C@]2(C)CC3)C(C)(C)C)cc1` was tested. Which IC50 [7] did it give?
A: 1140 nM

Q: With `C[C@@H](OC(C)(C)C)[C@H](NC(=O)OCc1cccc(OCCCCCOc2cccc3c2C(=O)N(C2CCC(=O)NC2=O)C3=O)c1)C(=O)N[C@H](CN[C@H](C=O)C[C@@H]1CCNC1=O)CC1CCCCC1` (stereo partly specified) as the molecule, how does the EC50 [7] read?
A: 290 nM

Q: For `Cc1sc2c(c1C)C(c1ccc(Cl)cc1)=N[C@@H](CC(=O)NCCCCCNCCOc1ccc(C3CC(=O)NC(=O)C3)cc1)c1nnc(C)n1-2`, which DC50 [8] is on record?
A: < 1 nM

Q: What about the Emax [9] of the same molecule?
A: 99%
